Eleven compounds from ChEMBL document CHEMBL1201862, “PubChem BioAssay data set” (2004) can be followed below.

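Exposure lasted 48 hours, with cells grown in 96-well plates and compounds tested at five concentrations. GI50 = concentration required for 50% inhibition of growth.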 The source made the active and inactive calls. Rule as the data show it: active = GI50 up to about 1.1 µM and inactive = higher.

Broadly, the GI50 is the concentration at which growth is held to half of that of the control.

Experiment in all cases: DTP human tumour cell line panel, 48 h
Experiment [1] deals with SNB-75.
The subject of experiment [2] is HOP-62.
For experiment [3], the system named is A549.
The subject of experiment [4] is OVCAR-8.
For experiment [5], the system named is NCI-H460.
Experiment [6] has as its system UACC-62.
Experiment [7] has as its system NCI-H226.
The test system of experiment [8] is UO-31.
Experiment [9] concerns NCI-H522.
In experiment [10] the test system is SF-295.
Experiment [11] relates to 786-0.
The subject of experiment [12] is MDA-N.
Experiment [13] deals with MDA-MB-231.
Experiment [14] deals with SNB-19.
Experiment [15] relates to SW-620.
Experiment [16] concerns OVCAR-5.
Experiment [17] concerns HCT-15.
Experiment [18] has as its system SR.
Experiment [19] has as its system Malme-3M.

`COC1CCC(O)C(/C=C/[N+](=O)[O-])C1` (stereo not given): the GI50 in experiment [1] was 9.68 µM (inactive); in [2], 5.41 µM (inactive); in experiment [3], 10.6 µM (inactive); in experiment [4], 1.95 µM (inactive); in experiment [5], 2.62 µM (inactive); in experiment [6] it was 6.24 µM (inactive). Further, the GI50 was 2.07 µM (inactive) in [7]; 1.81 µM (inactive) in experiment [8]; 10.9 µM (inactive) in [9]; 10.6 µM (inactive) in [10]; 1.7 µM (inactive) in experiment [11]; 1.99 µM (inactive) in experiment [12]. Moreover, the GI50 was 4.82 µM (inactive) in [13]; 11.5 µM (inactive) in experiment [14]; 3.33 µM (inactive) in experiment [15]; 9.1 µM (inactive) in experiment [16]; 1.82 µM in experiment [17]; 1.59 µM (inactive) in experiment [18].

Turning to `O=C(O[C@H](/C=C/c1ccccc1)P1(=O)N(Cc2ccccc2)[C@@H]2CCCC[C@H]2N1Cc1ccccc1)c1ccccc1`, the GI50 is 5.38 µM (inactive) in [2]; 3.66 µM (inactive) in [3]; 3.95 µM (inactive) in experiment [4]; 3.46 µM (inactive) in experiment [5]; 4.86 µM (inactive) in experiment [6]; 2.61 µM (inactive) in [7]. For the same compound, the GI50 in [8] is 4.5 µM (inactive); in experiment [9], 3.95 µM (inactive); in experiment [10], 3.79 µM (inactive); in experiment [11] it was 3.83 µM (inactive); in [12] it was 3.68 µM (inactive); in experiment [13], 3.16 µM (inactive). Moreover, the GI50 was 6.5 µM (inactive) in experiment [14]; 3.57 µM (inactive) in [15]; 4.17 µM (inactive) in [16]; 2.91 µM in [17]; 3.44 µM (inactive) in experiment [18]; 2.49 µM (inactive) in experiment [19].

In the case of `O=C(Cc1nc2ccc(C(=O)c3ccccc3)cc2nc1O)C(=O)Nc1ccccc1[N+](=O)[O-]`, the GI50 in [1] is 26.2 µM (inactive); in experiment [3], > 100 µM (inactive); in [4], 33.5 µM (inactive); in experiment [5], 53.6 µM (inactive); in experiment [6], 55.3 µM (inactive); in [7], 13.8 µM (inactive). Moreover, the GI50 in experiment [8] was 40 µM (inactive); in experiment [9], 34.4 µM (inactive); in experiment [10], 48.6 µM (inactive); in [11] it was 80.2 µM (inactive); in experiment [12], 39.4 µM (inactive); in experiment [13], 38.1 µM (inactive). In addition, the GI50 is 53.7 µM (inactive) in experiment [15]; > 100 µM (inactive) in experiment [16]; 46.3 µM in experiment [17]; 29.2 µM (inactive) in experiment [18]; 80.9 µM (inactive) in [19].

For the compound `COCC1OC(OC2OCC3OC4(OCC(O)(C(C)OC)C5OCOC54)OC3C2OC)C(OC)C(O)C1OC1OC(C)C(OC)C(OC2OC(C)C3OC4(CC(O)C(OC5CC(OC6CC(C)([N+](=O)[O-])C(OC)C(C)O6)C(OC(=O)c6c(C)c(Cl)c(O)c(Cl)c6OC)C(C)O5)C(C)O4)OC3(C)C2O)C1O` (stereo not given), the GI50 in experiment [1], in experiment [2], in experiment [3], in experiment [4], in [5] and in experiment [6] was > 100 µM (inactive) in each case. In addition, the GI50 in [7], in [8], in [9], in experiment [10], in [11] and in experiment [12] was > 100 µM (inactive) in each case. Also, the GI50 is > 100 µM (inactive) in [13]; > 100 µM (inactive) in experiment [14]; > 100 µM (inactive) in experiment [15]; > 100 µM (inactive) in [16]; > 100 µM in experiment [17]; > 100 µM (inactive) in experiment [18].

On to `Clc1ccc(CCN[C@H]2CCCC[C@H]2N2CCCC2)cc1Cl`, for which the GI50 was 20 µM (inactive) in [2]; 26.4 µM (inactive) in experiment [3]; 26.3 µM (inactive) in [4]; 14.9 µM (inactive) in experiment [5]; 17.8 µM (inactive) in experiment [6]; 21.1 µM (inactive) in experiment [7]. Moreover, the GI50 in experiment [8] was 13.6 µM (inactive); in experiment [9] it was 17.3 µM (inactive); in experiment [10], 16 µM (inactive); in [11] it was 24 µM (inactive); in experiment [12], 16.2 µM (inactive); in [13] it was 25.6 µM (inactive). The GI50 in experiment [14] was 25.9 µM (inactive); in experiment [15], 34 µM (inactive); in experiment [16] it was 20.6 µM (inactive); in experiment [17], 9.59 µM; in [18], 28.7 µM (inactive); in experiment [19] it was 15.9 µM (inactive).

Consider `Cc1c(C)c2c(c(N)c1C#N)C(=O)N(CCc1ccccc1)C2=O`, for which the GI50 was > 100 µM (inactive) in [1]; 94.8 µM (inactive) in experiment [3]; > 100 µM (inactive) in [4]; > 100 µM (inactive) in [5]; > 100 µM (inactive) in experiment [6]; > 100 µM (inactive) in experiment [7]. Further, the GI50 in experiment [8], in [9], in experiment [10], in experiment [11], in experiment [12] and in [13] was > 100 µM (inactive) in each case. Also, the GI50 in [14] was > 100 µM (inactive); in [15], > 100 µM (inactive); in [16], > 100 µM (inactive); in [17] it was > 100 µM; in experiment [18], 38.5 µM (inactive); in [19], > 100 µM (inactive).

For `CC(C)(C)OC(=O)C1C(=O)NC(=O)CC1C(COCc1ccccc1)OCc1ccccc1` (stereo not given), the GI50 was 12.1 µM (inactive) in experiment [2]; 30.4 µM (inactive) in [3]; 29.3 µM (inactive) in experiment [4]; 17.6 µM (inactive) in [7]; 27.1 µM (inactive) in experiment [8]; 15.8 µM (inactive) in experiment [9]. In addition, the GI50 is 20.5 µM (inactive) in experiment [10]; 24.3 µM (inactive) in experiment [11]; 18 µM (inactive) in experiment [12]; 17.2 µM (inactive) in experiment [13]; 40.6 µM (inactive) in [14]; 25.4 µM (inactive) in experiment [15]. Moreover, the GI50 in [16] is 12.2 µM (inactive); in [17], 21.6 µM; in experiment [18], 18 µM (inactive); in [19], 19.8 µM (inactive).

`CN(C(=O)C12C3C4C1C1C2C3C41C(=O)O)C(C)(C)C` (stereo not given): the GI50 in [1], in experiment [2], in experiment [3], in experiment [4], in [5] and in [6] was > 100 µM (inactive) each time. Moreover, the GI50 in [8], in [9], in experiment [10], in experiment [11], in [12] and in experiment [13] was > 100 µM (inactive) throughout. Besides, the GI50 is > 100 µM (inactive) in experiment [14]; > 100 µM (inactive) in experiment [15]; > 100 µM (inactive) in experiment [16]; > 100 µM in experiment [17]; > 100 µM (inactive) in [18].

For `NS(=O)(=O)c1cc(S(N)(=O)=O)c(NC(=O)N(c2ccccc2)c2ccccc2)c(Cl)c1Cl`, the GI50 was 31.8 µM (inactive) in [3]; 13.2 µM (inactive) in experiment [4]; 34.9 µM (inactive) in experiment [5]; 26.2 µM (inactive) in experiment [6]; 18.9 µM (inactive) in experiment [7]; 20.2 µM (inactive) in [8]. Moreover, the GI50 is 13.2 µM (inactive) in [9]; 30.2 µM (inactive) in experiment [10]; 30.1 µM (inactive) in experiment [11]; 24.7 µM (inactive) in [12]; 33 µM (inactive) in experiment [13]; 40.4 µM (inactive) in experiment [14]. In addition, the GI50 is 29.9 µM (inactive) in experiment [15], 42.1 µM (inactive) in experiment [16], 20.3 µM in [17] and 18.4 µM (inactive) in experiment [18].

As for `CN1CC(c2ccccc2)C(O)(C2(c3ccccc3)CN(C)CC(c3ccccc3)C2=O)C(c2ccccc2)C1` (stereo not given), the GI50 was 77.1 µM (inactive) in [2]; > 100 µM (inactive) in experiment [3]; > 100 µM (inactive) in experiment [4]; 45.8 µM (inactive) in experiment [5]; > 100 µM (inactive) in experiment [6]; > 100 µM (inactive) in experiment [7]. Also, the GI50 in [8] was > 100 µM (inactive); in experiment [9], > 100 µM (inactive); in [10], 55.2 µM (inactive); in [11], > 100 µM (inactive); in [12], > 100 µM (inactive); in experiment [13], > 100 µM (inactive). Besides, the GI50 in experiment [14] is > 100 µM (inactive); in experiment [15], > 100 µM (inactive); in [16], > 100 µM (inactive); in [17] it was > 100 µM; in experiment [18], > 100 µM (inactive).

Regarding `CCOC(=O)Nn1c(C)nnc1-c1ccccc1`, the GI50 in experiment [3], in experiment [4], in experiment [5], in experiment [6], in [7] and in [8] was > 100 µM (inactive) in each case. Further, the GI50 in [9], in experiment [10], in experiment [11], in [12], in [13] and in experiment [14] was > 100 µM (inactive) in each case. In addition, the GI50 in experiment [15] was > 100 µM (inactive); in experiment [16], > 100 µM (inactive); in experiment [17] it was > 100 µM; in experiment [18] it was > 100 µM (inactive); in experiment [19] it was > 100 µM (inactive).
